We go through one compound from patent US20150290105A1, “COMPOSITION COMPRISING SYRINGARESINOL FOR IMPROVING THE SKIN” (AMOREPACIFIC CORPORATION, priority 2011, published 2015).

The test system of experiment [1] is mushroom-derived tyrosinase. The experiment in a line: Tyrosinase activity inhibiting effect (dopachrome formation). In kind it is biochemical. The following applies: 10 ppm, 37° C. 10 minutes. As to the method:
The reaction solution was prepared by adding 500 μL of 0.1 M PBS, 15 μg of L-tyrosine and 50 μL of syringaresinol and then adding distilled water to make the final volume 1500 μL. A solution prepared through the same procedure but with Kojic acid instead of syringaresinol was used as a positive control. The concentration of all the samples used in experiment was set to 10 ppm. After adding 10 units of mushroom-derived tyrosinase to the reaction solution, followed by reaction at 37° C. for 10 minutes, the reaction was stopped by quickly transferring onto ice for 5 minutes. The synthesis rate of dopachrome produced was determined by measuring absorbance at 475 nm and tyrosinase activity inhibiting rate (%) was calculated therefrom.

A further experiment relates to collagen IV. The experiment in a line: UV-induced collagen breakdown in human keratinocytes (western blot). In kind it is cell-based. The following applies: HaCaT cells, 50 μM, UVB 30 mJ/cm^2, FIG. 6. As to the method: Human keratinocyte HaCaT cells were cultured in substantially the same manner as in Test Example 10.
The cultured cells were treated with trypsin to obtain a single-cell suspension. Then, the cells were distributed in a 6-well plate, with 2×10^5 cells per well, and cultured for 24 hours. Subsequently, after replacing the medium with DMEM not containing fetal bovine serum and culturing again for 24 hours, the cells were treated with 50 μM syringaresinol dissolved in DMSO. After treating for 24 hours, the cells were washed with PBS and UVB of 30 mJ/cm^2 was irradiated in PBS. After discarding the PBS, the cells were added to a medium containing syringaresinol of the same concentration. As a control group, the cells were cultured in the same manner without treating with syringaresinol. […] Then, after centrifuging at 4° C. for 10 minutes with 15,000 g, the supernatant was recovered and protein was quantitated using Bio-Rad Protein Dye ReagentTM. […] Bands on the film were scanned with PowerLook 2100 XL (UMAX) and analyzed with the image-analyzing program ImageMaster 2D Elite (Amersham Bioscience).
Background: In western blotting, separated proteins are transferred to a membrane and probed.

Experiment [2] in a line: Transepidermal water loss (TEWL) in hairless mouse. In kind it is in vivo, hairless mice (SKH: HR-1). The following applies: 3 weeks, FIG. 8. As to the method:
30-week-old female hairless mice (SKH: HR-1) weighing 25-39 g were purchased from Charles River Laboratories (Wilmington, Mass., USA). The mice were accustomed to the laboratory environment for a week and then grouped into normal groups and test substance-treated groups, with 5 mice per each group. The mice were allowed free access to water and feed under the condition of 12-hour light/dark cycles, 23.2° C. and 55.10% humidity. For the test substance-treated groups, a patch of 1% syringaresinol dissolved in a solvent (1,3-butylene glycol:ethanol=7:3) was applied 2 times for 2 days or 200 mg/kg syringaresinol was orally administered. The control groups were treated in the same way using the solvent of the same amount instead of syringaresinol. […] Before and after the UV radiation, skin wrinkles on the exposed part were taken with replica and measured using the Visiometer system (C+K). 3 weeks after the onset of experiment, transepidermal water loss (TEWL) was measured on the back part of the hairless mouse of each group using a wireless vapometer (Delfin Technologies, Ltd., SWL 4102). […] Transepidermal water loss is the quantity of water that passes from inside the body through the skin and a larger value means poor skin moisturization ability and damaged skin barrier function. […]

The nature of experiment [3]: Skin whitening effect when applied to UVB-tanned human skin. Type of experiment: in vivo. The conditions noted are these: 1% applied on upper arm after UVB, 10 weeks, 12 male subjects. As to the method:
First, opaque tapes having holes of 1.5 cm in diameter were attached on the upper arms of 12 healthy male subjects and UVB of about 1.5-2 times the minimal erythemal dose was irradiated to each subject to induce skin tanning. […] Then, the change was monitored for 10 weeks. The color of the skin was measured with 1-week interval using the CR2002 colorimeter (Minolta, Japan). The change in skin color (ΔL*) between the time when the test substance was applied and the time when the test was completed was calculated according to Equation 3. Skin whitening effect is evaluated by comparing the ΔL* of the part where the test substance was applied with that of the control part. A ΔL* value of about 2 can be interpreted as distinct skin whitening effect and one about 1.5 can be evaluated as positive skin whitening effect.
ΔL*=(L* when test was completed)−(L* when test substance was applied) [Equation 3]

In a further experiment the test system is interleukin 6 gene. As to the kind of experiment: Interleukin 6 gene expression in keratinocytes (Q-RT-PCR). Type of experiment: cell-based. The following applies: 24 hours, relative to non-treated control. As to the method: Interleukin 6 (IL-6) is a cytokine secreted by keratinocytes, etc. Increased secretion owing to activation of the IL-6 gene leads to bright skin color and skin tone and suppressed skin pigmentation such as melasma or blemish. It was investigated whether syringaresinol can increase the expression of the IL-6 gene in skin keratinocytes.
Keratinocytes were treated with 10 ppm or 100 ppm syringaresinol. 24 hours later, the cells were recovered and washed twice with 10 mL of PBS. Then, total RNA was isolated from the cells using TRIzol reagent (Invitrogen, Carlsbad, Calif., USA). The isolated RNA was purified once more using the Qiagen RNeasy kit (Qiagen, Valencia, Calif.) and cDNA was synthesized therefrom using the Superscript Reverse Transcriptase (RT) II kit (Invitrogen, Carlsbad, Calif.). Subsequently, the change in the expression of the interleukin 6 gene was quantitatively analyzed by real-time reverse transcription polymerase chain reaction (Q-RT-PCR). The change in the gene expression pattern was evaluated using the TaqMan gene expression assay kit (Applied Biosystems, Forster City, Calif.). Hs00174360_ml was used as a primer. The expression level of interleukin 6 in the cells was analyzed by real-time PCR and was calculated relative to a non-treated control group.

`COc1cc(C2OCC3C(c4cc(OC)c(O)c(OC)c4)OCC23)cc(OC)c1O` (stereo not shown) [Syringaresinol, syringaresinol]: the “Tyrosinase activity inhibiting rate (%)” value in experiment [1] was found to be 90.2%. In addition, in the experiment with collagen IV, the UV-induced collagen breakdown entry was “inhibits collagen breakdown”. Also, the “UV-induced transepidermal water loss (TEWL)” value in experiment [2] (application) and in experiment [2] (oral administration) was “decrease in UV-induced transepidermal water loss” in each case. Besides, the “Change in skin brightness (ΔL*)” value in experiment [3] is on record as 1.98 ± 0.11. In addition, the “Expression of IL-6 gene” value in the experiment on interleukin 6 gene (10 ppm) turned out to be 3.5; in the experiment on interleukin 6 gene (100 ppm), 8.2.
